Values joined by “and” are separate entries in the source; they are usually repeats but may differ in a detail not shown here. Equal entries are not always repeated.
How the values were obtained:
[1] = test system: SK-HEP-1 cells; experiment: Protection of endothelial cells from homocysteine-induced cell death (MTS assay); assay type: cell-based, human
[2] = test system: SK-HEP-1 cells; experiment: Protection of endothelial cells from H2O2-induced cell death (MTS assay); assay type: cell-based, human; set-up: key to Cell viability (MTS assay): cell viability as % survival; conditions: for Cell viability (MTS assay): SK-HEP-1, n = 6 replicates
Method: The effect of increasing concentrations of NACCbl and GSCbl to protect endothelial cells from the effect of H2O2 was assessed. […] Cell viability was determined by MTS® assay. […] FIG. 3 illustrates that NACCbl and GSCbl protect endothelial cells from the effect of H2O2. […] Cell viability was determined by MTS® assay. […] There was no difference between the protection afforded by NACCbl and that by GSCbl. Both required 100 μM to achieve >80% survival.

[3] = test system: SK-HEP-1 cells; experiment: Protection from homocysteine-induced apoptosis, Caspase-3 activity (apoptosis assay); assay type: cell-based, human; conditions: 30 μM two hours, then 30 μM homocysteine two hours
Method: Caspase 3 is activated when cells undergo apoptosis. Caspase-3 assay is a standard for apoptosis assay. Homocysteine is a known inducer of apoptosis. Cells were cultured in 96-well plates for 24 hours and then treated with reagents under test conditions. Cytotoxic agents, H2O2 and etoposide were added to negative control wells. The assay was performed according to the manufacturer's protocol, as follows: Cells were re-suspended in 100 μl of clear media and 50 μl of Caspase-3 substrate solution was immediately added to each test well. […] Cell viability was determined by MTS® assay. […] Cell viability was determined by MTS® assay.

[4] = test system: U937 (monocytes); experiment: Survival of U937 cells at variable concentration of Hcy; assay type: cell-based; conditions: NACCbl 30 μM, NAC 75 μM, CNCbl 15 μM, folate 30 μM
Method: (§1) Additional cell studies were conducted using Jurkat (T-cells) and U937 (monocyte) cell lines. These experiments confirmed that other cell types are killed by homocysteine, although these cell lines are not as sensitive as the SK-HEP-1 cell line discussed in the experiments above and are thus more resistant to homocysteine. Cells were exposed to NACCbl 30 μM, NAC 75 μM, CNCbl 15 μM, and folate 30 μM. […] In these Figures, the monocytes are N=6 and concentrations are as follows: NACCbl 30 μM, NAC 75 μM, CNCbl 15 μM, Folate 30 μM

[5] = test system: Jurkat (T-cells); experiment: Survival of Jurkat cells at variable concentration of Hcy; assay type: cell-based; conditions: NACCbl 30 μM, NAC 75 μM, CNCbl 15 μM, folate 30 μM
Method: as §1

[6] = test system: SK-HEP-1 cells; experiment: Protection of endothelial cells from H2O2-induced cell death (MTS assay); assay type: cell-based, human; set-up: key to Cell viability (MTS assay): cell viability as % survival; conditions: for Cell viability (MTS assay): SK-HEP-1, n = 6 replicates; remark: listed apart in the source
[7] = test system: SK-HEP-1 cells; experiment: NACCbl protection from homocysteine with inhibition of Hsp32/Hsp70 by Sn(IX) protoporphyrin, quercitin or siRNA (MTS assay)
[8] = 2 hours, then 25 μM H2O2 24 hours

## CC(=O)NC(C[S-])C(=O)O.CC1=C2N=C(C=C3N=C(C(C)=C4[N-]C(C(CC(N)=O)C4(C)CCC(=O)NCC(C)OP(=O)([O-])OC4C(CO)OC(n5cnc6cc(C)c(C)cc65)C4O)C4(C)N=C1C(CCC(N)=O)C4(C)CC(N)=O)C(CCC(N)=O)C3(C)C)C(CCC(N)=O)C2(C)CC(N)=O.[Co+3] [NACCbl, N-acetyl-L-cysteinylcobalamin]
[1]; as E80, Hcy conc. 100.000
  Absorbance at 490 nm, Mean: 1.685
[1]; compound 30 μM, 50 μM homocysteine
  Survival: ~60%
[1]; concentrations below 12.5 μM, 30 μM homocysteine, p<0.001
  Protection compared with GSCbl: significantly greater than that provided by GSCbl
[1]; pre-incubation 30 μM two hours, variable homocysteine two hours
  Protection from homocysteine-induced cell death: protected cells from homocysteine-induced cell death
[1]; ≧12.5 μM NACCbl, then 30 μM homocysteine 24 hours
  Survival: 80%
[2]; 25 μM H2O2 24 hours
  Difference between protection by NACCbl and by GSCbl: no difference
[2]; [8]
  Concentration required to achieve >80% survival: 100 µM
  Preincubation concentration that protected cells from H2O2-induced cell death: ≥ 2.0 µM
[2]; compound 30 μM two hours, then H2O2 200 μM a further two hours
  Cell viability (MTS assay): 5.2108 and 7.153 and 1.99 and 0.6632
[2]; compound concentration 6.25, 2 hours, then 25 μM H2O2 24 hours
  Cell viability (MTS assay): 42.8195 and 42.09 and 39.39 and 30.9 and 28 and 38.4058
[2]; compound concentration 12.5, 2 hours, then 25 μM H2O2 24 hours
  Cell viability (MTS assay): 45.26 and 41.7 and 44.99 and 45.5863 and 42.23 and 47.36
[2]; compound concentration 25, 2 hours, then 25 μM H2O2 24 hours
  Cell viability (MTS assay): 46.9 and 46.77 and 45.26 and 42.69 and 45.72 and 48.16
[2]; compound concentration 100, 2 hours, then 25 μM H2O2 24 hours
  Cell viability (MTS assay): 61.5942 and 56.59 and 70.22 and 74.37 and 64.23 and 61.79
[2]; compound concentration 200, 2 hours, then 25 μM H2O2 24 hours
  Cell viability (MTS assay): 100.7246 and 99.7365 and 101.8445 and 107.3123 and 92.69 and 97.56
[3]
  Protection against apoptosis induced by homocysteine: total protection
[4]
  Protection of U937 cells from death: more effective at protecting these cells from death than NAC, CN Cbl or folate
[5]
  Protection of Jurkat cells from death: more effective at protecting these cells from death than NAC, CN Cbl or folate
[6]; NACCbl 30 μM, above 25 μM H2O2
  Survival: below 60%
[6]; compound 30 μM two hours, then H2O2 0 μM
  Cell viability (MTS assay): 102.9844 and 100.8053 and 103.2212 and 107.9583 and 101.8948 and 98.44
[6]; compound 30 μM two hours, then H2O2 0.781 μM a further two hours
  Cell viability (MTS assay): 93.46 and 102.7949 and 99.24 and 101.3738 and 103.2686 and 95.45
[6]; compound 30 μM two hours, then H2O2 1.56 μM a further two hours
  Cell viability (MTS assay): 98.53 and 91.38 and 98.72 and 100.1421 and 89.77 and 96.12
[6]; compound 30 μM two hours, then H2O2 3.125 μM a further two hours
  Cell viability (MTS assay): 88.2 and 93.18 and 92.89 and 99.76 and 92.42 and 91.8
[6]; compound 30 μM two hours, then H2O2 6.25 μM a further two hours
  Cell viability (MTS assay): 88.2 and 87.59 and 82.14 and 81.57 and 78.07 and 77.12
[6]; compound 30 μM two hours, then H2O2 12.5 μM a further two hours
  Cell viability (MTS assay): 77.17 and 76.98 and 76.6 and 67.12 and 77.6883 and 74.14
[6]; compound 30 μM two hours, then H2O2 25 μM a further two hours
  Cell viability (MTS assay): 67.12 and 66.75 and 61.87 and 56.18 and 55.3766 and 55.95
[6]; compound 30 μM two hours, then H2O2 50 μM a further two hours
  Cell viability (MTS assay): 50.21 and 48.27 and 44.955 and 45.71 and 48.18 and 44.58
[6]; compound 30 μM two hours, then H2O2 100 μM a further two hours
  Cell viability (MTS assay): 29.99 and 23.97 and 19.56 and 18.901 and 17.53 and 20.89
[6]; compound concentration 1.562, 2 hours, then 25 μM H2O2 24 hours
  Cell viability (MTS assay): 4.677 and 1.845 and 5.27 and 1.647 and 4.348 and 5.599
[6]; compound concentration 3.125, 2 hours, then 25 μM H2O2 24 hours
  Cell viability (MTS assay): 26.8116 and 19.5 and 35.84 and 30.5 and 35.24 and 33
[7]; SK-HEP-1, NACCbl 30 μM two hours with or without Sn(IX)PP/quercetin, then Hcy conc. 200 two hours, label Hcy = Hcy alone
  Cell viability by MTS assay (FIG. 11), replicates 1-6: 1.378 and 1.167 and 1.33 and 1.456 and 1.491 and 1.537
[7]; Sn(IX) protoporphyrin or siRNA, p<0.001
  Reduction of the protection by NACCbl on inhibition of Hsp32: 10-20%
[7]; as E45, Hcy conc. 0
  Cell viability by MTS assay (FIG. 11), replicates 1-6: 2.885 and 2.698 and 2.821 and 2.771 and 2.691 and 2.7
[7]; as E45, Hcy conc. 1.78
  Cell viability by MTS assay (FIG. 11), replicates 1-6: 2.647 and 2.551 and 2.789 and 2.89 and 2.549 and 2.611
[7]; as E45, Hcy conc. 3.125
  Cell viability by MTS assay (FIG. 11), replicates 1-6: 2.453 and 2.338 and 2.36 and 2.317 and 2.418 and 2.535
[7]; as E45, Hcy conc. 6.25
  Cell viability by MTS assay (FIG. 11), replicates 1-6: 2.41 and 2.4 and 2.322 and 2.201 and 2.115 and 2.187
[7]; as E45, Hcy conc. 12.5
  Cell viability by MTS assay (FIG. 11), replicates 1-6: 2.21 and 2.11 and 2.045 and 2.065 and 2.101 and 2.324
[7]; as E45, Hcy conc. 25
  Cell viability by MTS assay (FIG. 11), replicates 1-6: 2.1 and 2.19 and 1.879 and 1.937 and 1.779 and 1.837
[7]; as E45, Hcy conc. 50
  Cell viability by MTS assay (FIG. 11), replicates 1-6: 1.678 and 1.832 and 1.881 and 1.73 and 1.74 and 1.855
[7]; as E45, Hcy conc. 100
  Cell viability by MTS assay (FIG. 11), replicates 1-6: 1.678 and 1.592 and 1.694 and 1.773 and 1.732 and 1.639
[7]; chemically and directly
  Protection by NACCbl on inhibition of both Hsp32 and Hsp70 together: totally removed protection
[7]; quercitin or siRNA, p<0.001
  Reduction of the protection by NACCbl on inhibition of Hsp70: 20-40%

Reference: patent US20080113900A1, “Pharmaceutical compositions and therapeutic applications for the use of a synthetic vitamin B12 derivative, glutathionylcobalamin” (priority 2006, published 2008)
